In the NIST ThermoML archive (doi:10.1016/j.jct.2016.12.033):

Assay: mn = molality of the nth substance listed, in mol/kg
Details: 101.3 kPa, Liquid; for viscosity: Capillary tube (Ostwald / Ubbelohde) method; for mass density: Pycnometric method

Cc1ncc(CO)c(CO)c1O.Cl [5-hydroxy-6-methyl-3,4-pyridinedimethanol hydrochloride] + O
Details | mass density [kg/m3] | viscosity [mPa·s]
275.15 K, m1 = 0.0101 | 1000.6 | 1.687
275.15 K, m1 = 0.0204 | 1001.28 | 1.695
275.15 K, m1 = 0.03 | 1001.91 | 1.703
275.15 K, m1 = 0.0357 | 1002.27 | 1.706
275.15 K, m1 = 0.0401 | 1002.55 | 1.708
275.15 K, m1 = 0.0454 | 1002.9 | 1.712
275.15 K, m1 = 0.0505 | 1003.22 | 1.719
275.15 K, m1 = 0.0557 | 1003.54 | 1.722
275.15 K, m1 = 0.0695 | 1004.4 | 1.725
275.15 K, m1 = 0.0766 | 1004.84 | 1.73
275.15 K, m1 = 0.0801 | 1005.06 | 1.735
275.15 K, m1 = 0.0857 | 1005.41 | 1.737
275.15 K, m1 = 0.0882 | 1005.58 | 1.739
275.15 K, m1 = 0.1004 | 1006.38 | 1.75
277.15 K, m1 = 0.0099 | 1000.61 | 1.576
277.15 K, m1 = 0.0202 | 1001.27 | 1.58
277.15 K, m1 = 0.0252 | 1001.59 | 1.584
277.15 K, m1 = 0.0299 | 1001.89 | 1.588
277.15 K, m1 = 0.035 | 1002.22 | 1.592
277.15 K, m1 = 0.04 | 1002.54 | 1.597
277.15 K, m1 = 0.0497 | 1003.15 | 1.603
277.15 K, m1 = 0.0598 | 1003.79 | 1.606
277.15 K, m1 = 0.0658 | 1004.16 | 1.607
277.15 K, m1 = 0.0683 | 1004.32 | 1.609
277.15 K, m1 = 0.0753 | 1004.75 | 1.615
277.15 K, m1 = 0.0797 | 1005.02 | 1.619
277.15 K, m1 = 0.0882 | 1005.55 | 1.625
277.15 K, m1 = 0.1004 | 1006.29 | 1.629
279.15 K, m1 = 0.01 | 1000.56 | 1.477
279.15 K, m1 = 0.0199 | 1001.18 | 1.479
279.15 K, m1 = 0.0253 | 1001.51 | 1.484
279.15 K, m1 = 0.0298 | 1001.8 | 1.488
279.15 K, m1 = 0.0351 | 1002.13 | 1.495
279.15 K, m1 = 0.0397 | 1002.42 | 1.5
279.15 K, m1 = 0.0492 | 1003 | 1.499
279.15 K, m1 = 0.055 | 1003.36 | 1.507
279.15 K, m1 = 0.0578 | 1003.53 | 1.505
279.15 K, m1 = 0.0648 | 1003.96 | 1.515
279.15 K, m1 = 0.069 | 1004.22 | 1.522
279.15 K, m1 = 0.0798 | 1004.9 | 1.524
279.15 K, m1 = 0.0897 | 1005.51 | 1.53
279.15 K, m1 = 0.0996 | 1006.16 | 1.535

O=C1O[C@H]([C@@H](O)CO)C([O-])=C1O.[Na+] [sodium L-ascorbate] + O
Details | mass density [kg/m3] | viscosity [mPa·s]
275.15 K, m1 = 0.01 | 1001.05 | 1.68
275.15 K, m1 = 0.0201 | 1002.2 | 1.691
275.15 K, m1 = 0.0303 | 1003.31 | 1.703
275.15 K, m1 = 0.0348 | 1003.83 | 1.703
275.15 K, m1 = 0.04 | 1004.41 | 1.706
275.15 K, m1 = 0.0451 | 1004.94 | 1.708
275.15 K, m1 = 0.05 | 1005.5 | 1.718
275.15 K, m1 = 0.0598 | 1006.59 | 1.727
275.15 K, m1 = 0.0699 | 1007.71 | 1.736
275.15 K, m1 = 0.0749 | 1008.27 | 1.745
275.15 K, m1 = 0.0835 | 1009.12 | 1.748
275.15 K, m1 = 0.0849 | 1009.32 | 1.747
275.15 K, m1 = 0.0902 | 1009.85 | 1.757
275.15 K, m1 = 0.0999 | 1010.96 | 1.765
277.15 K, m1 = 0.01 | 1001.09 | 1.572
277.15 K, m1 = 0.02 | 1002.17 | 1.578
277.15 K, m1 = 0.0301 | 1003.31 | 1.586
277.15 K, m1 = 0.0351 | 1003.85 | 1.591
277.15 K, m1 = 0.0402 | 1004.45 | 1.595
277.15 K, m1 = 0.05 | 1005.5 | 1.601
277.15 K, m1 = 0.0601 | 1006.59 | 1.609
277.15 K, m1 = 0.065 | 1007.13 | 1.616
277.15 K, m1 = 0.0697 | 1007.7 | 1.619
277.15 K, m1 = 0.075 | 1008.2 | 1.626
277.15 K, m1 = 0.0798 | 1008.75 | 1.628
277.15 K, m1 = 0.0851 | 1009.29 | 1.634
277.15 K, m1 = 0.0898 | 1009.82 | 1.641
277.15 K, m1 = 0.1003 | 1010.95 | 1.646
279.15 K, m1 = 0.0105 | 1001.12 | 1.479
279.15 K, m1 = 0.0201 | 1002.16 | 1.482
279.15 K, m1 = 0.0301 | 1003.23 | 1.491
279.15 K, m1 = 0.0348 | 1003.74 | 1.494
279.15 K, m1 = 0.0402 | 1004.33 | 1.498
279.15 K, m1 = 0.045 | 1004.84 | 1.503
279.15 K, m1 = 0.0501 | 1005.39 | 1.506
279.15 K, m1 = 0.0602 | 1006.49 | 1.516
279.15 K, m1 = 0.065 | 1007.01 | 1.52
279.15 K, m1 = 0.0699 | 1007.54 | 1.531
279.15 K, m1 = 0.0752 | 1008.12 | 1.532
279.15 K, m1 = 0.0852 | 1009.19 | 1.538
279.15 K, m1 = 0.0904 | 1009.74 | 1.541
279.15 K, m1 = 0.1005 | 1010.79 | 1.548

Cc1ncc(C[n+]2csc(CCO)c2C)c(N)n1.Cl.[Cl-] [thiamine hydrochloride] + O
Details | mass density [kg/m3] | viscosity [mPa·s]
275.15 K, m1 = 0.0101 | 1001.03 | 1.692
275.15 K, m1 = 0.0201 | 1002.1 | 1.7
275.15 K, m1 = 0.0249 | 1002.6 | 1.712
275.15 K, m1 = 0.0302 | 1003.15 | 1.718
275.15 K, m1 = 0.04 | 1004.19 | 1.728
275.15 K, m1 = 0.0451 | 1004.73 | 1.736
275.15 K, m1 = 0.0499 | 1005.24 | 1.745
275.15 K, m1 = 0.055 | 1005.78 | 1.752
275.15 K, m1 = 0.0611 | 1006.45 | 1.759
275.15 K, m1 = 0.0645 | 1006.81 | 1.76
275.15 K, m1 = 0.0701 | 1007.4 | 1.771
275.15 K, m1 = 0.0751 | 1007.91 | 1.776
275.15 K, m1 = 0.0792 | 1008.33 | 1.776
275.15 K, m1 = 0.0897 | 1009.33 | 1.788
275.15 K, m1 = 0.1001 | 1010.2 | 1.8
277.15 K, m1 = 0.0101 | 1001.04 | 1.575
277.15 K, m1 = 0.0201 | 1002.1 | 1.591
277.15 K, m1 = 0.025 | 1002.61 | 1.593
277.15 K, m1 = 0.0299 | 1003.12 | 1.604
277.15 K, m1 = 0.0401 | 1004.18 | 1.61
277.15 K, m1 = 0.0452 | 1004.7 | 1.621
277.15 K, m1 = 0.0501 | 1005.2 | 1.627
277.15 K, m1 = 0.055 | 1005.69 | 1.632
277.15 K, m1 = 0.0598 | 1006.18 | 1.64
277.15 K, m1 = 0.0653 | 1006.74 | 1.646
277.15 K, m1 = 0.0704 | 1007.25 | 1.66
277.15 K, m1 = 0.0803 | 1008.25 | 1.672
277.15 K, m1 = 0.0822 | 1008.45 | 1.671
277.15 K, m1 = 0.0898 | 1009.24 | 1.678
279.15 K, m1 = 0.008 | 1000.76 | 1.481
279.15 K, m1 = 0.02 | 1002 | 1.494
279.15 K, m1 = 0.0249 | 1002.52 | 1.497
279.15 K, m1 = 0.0301 | 1003.05 | 1.505
279.15 K, m1 = 0.04 | 1004.08 | 1.512
279.15 K, m1 = 0.045 | 1004.59 | 1.517
279.15 K, m1 = 0.0501 | 1005.11 | 1.521
279.15 K, m1 = 0.0552 | 1005.63 | 1.527
279.15 K, m1 = 0.0603 | 1006.15 | 1.529
279.15 K, m1 = 0.0652 | 1006.65 | 1.542
279.15 K, m1 = 0.0703 | 1007.16 | 1.549
279.15 K, m1 = 0.0751 | 1007.64 | 1.556
279.15 K, m1 = 0.0798 | 1008.1 | 1.563
279.15 K, m1 = 0.0897 | 1009.09 | 1.57
279.15 K, m1 = 0.1001 | 1010.12 | 1.581
